Experiments:
[1] = target: SOS1/KRAS-G12D (Homo sapiens (Human), UniProt Q07889); assay: SOS1/KRAS-G12D binding inhibition assay (AlphaScreen); conditions: GST-SOS1 and 6*His KRAS-G12D, read-out: KrasG12D/SOS1 binding IC50
Experimental: Example 22: SOS1/KRAS-G12D Binding Inhibition Assay
SOS1 binding affinity of candidate compounds was measured by monitoring the interaction of SOS1 with KRAS-G12D in the presence of the test compound. Briefly, 5 nM GST tagged SOS1 proteins (final concentration) were pre-incubated with 50 nM 6*His tagged KRAS-G12D proteins (final concentration) in an assay buffer containing 10 mM HEPES, pH 7.4, 150 mM NaCl, 1 mM DTT, 5 mM MgCl2, 0.1% Tween-20, and 0.05% BSA for 30 minutes. The test compounds in 2% DMSO (final concentration) at various concentrations were then added to the reaction mixture and incubated for another 30 minutes at 4° C. 5 ug/ml GSH AlphaScreen donor beads (PerkinElmer, 6765300) and 5 ug/ml nickel chelate (Ni-NTA) AlphaScreen acceptor beads (PerkinElmer, 6760619C) (final concentrations) were then added to the mixture. After an incubation of 2 hours at 4° C., the fluorescent signals were obtained on the EnVision® 2105 Multilabel Plate Reader (PerkinElmer).
Raw AlphaScreen data were converted to a percentage of inhibition (relative to DMSO) using the following equations: • a) For a given test compound concentration X:
Signal (X)=Signal (SOS1 & KRAS-G12D & compound)-Signal (buffer & KRAS-G12D & compound)
Percentage of inhibition at concentration X=[1−Signal (X)/Signal (DMSO)]*100% b)
The IC50 values were determined by nonlinear regression of plots of [inhibitor] vs. percentage of inhibition with variable slope, analyzed using GraphPad Prism 9.

[2] = system: Phospho-ERK1/2 in DLD1 cells; assay: Phospho-ERK1/2 expression inhibition in DLD1 cells; type: cell-based; conditions: Homo sapiens, DLD-1, 4 hours, read-out: DLD1 pERK IC50
Experimental: Example 23: Phospho-ERK1/2 Expression Inhibition in DLD1 Cells
DLD1 cells were obtained from American Type Culture Collection (ATCC). DLD1 cells were plated in 96-well plates (VWR #10062-900, or Corning #3904) in 90 uL culture medium at a density of 15,000 cells/well in the RPM11640 growth medium containing 10% FBS and 1% Penicillin Streptomycin, and then incubated at 37° C. overnight. The following day, the test compound was administered to the cells by using 1000×x compound stock solution prepared in DMSO at various concentrations. 1000× compound stock solution was first diluted in culturing medium to 10×, then 10 uL compound medium was added to each well in the cell plates. After administration of the compound, the cells were then incubated at 37° C. for 4 hours. Upon completion, the cells were washed with PBS briefly. 150 uL/well of 4% formaldehyde was added and the plates were incubated at room temperature for 20 mins. The cells were washed with PBS briefly, and permeabilized with 150 uL/well of ice cold 100% methanol for 10 mins. The cells were washed with PBS briefly and blocked with 100 uL/well LI-COR blocking buffer for 1 hr at room temperature with gentle shaking. The cells were incubated overnight at 4° C. with 50 uL primary antibody rabbit anti-Phospho-ERK1/2 (1: 500, Cell Signaling, #4370) diluted in Intercept Blocking Buffer (LI-COR, #927-60001) containing 0.1% Tween 20. The next day, the cells were washed with 200 uL PBS containing 0.1% Tween 20, 5×5 mins at room temperature with gentle shaking, and incubated with 50 uL secondary antibody, IRDye® 800CW Goat anti-Rabbit IgG (LI-COR, #926-32211), 1:1000, in LI-COR blocking buffer with 0.2% Tween 20 for 1 hr at room temperature with gentle shaking. The cells were washed with 200 uL PBS containing 0.1% Tween 20, 5×5 mins at room temperature with gentle shaking. The cells were washed with PBS for 5 mins. 100 uL fresh PBS was added to each well and the plates were imaged on a LI-COR Odyssey CLX plate reader.

[3] = system: K562 cells; assay: Cell growth inhibition of K562 cells (CellTiter-Glo); type: cell-based; conditions: Homo sapiens, 120 h, 5 days
Experimental: Example 24: Cell Growth Inhibition of K562 Cells
K562 cells were obtained from American Type Culture Collection (ATCC). For cell growth assay, K562 cells were seeded in 96-well plates at 1000 cells/well in 90 μl of RPM11640 growth medium containing 10% FBS and 1% Penicillin Streptomycin, and then incubated at 37° C. for 1 hour. The test compound was administered to the cells by using 1000× compound stock solution prepared in DMSO at various concentrations. 1000× compound stock solution was first diluted in culturing medium to 10×, then 10 uL compound medium was added to each well in the cell plates. After administration of the compound, the cells were then incubated at 37° C. for 5 days. Upon completion, the plates were equilibrated at room temperature for approximately 10 minutes. 100 ul of CellTiter-Glo® Reagent (Promega) was added to each well. The plates were then incubated at room temperature for 10 minutes and luminescence was recorded by EnSpire plate reader (PerkinElmer).

Sequence of SOS1/KRAS-G12D (Q07889 564-1049 limits assumed): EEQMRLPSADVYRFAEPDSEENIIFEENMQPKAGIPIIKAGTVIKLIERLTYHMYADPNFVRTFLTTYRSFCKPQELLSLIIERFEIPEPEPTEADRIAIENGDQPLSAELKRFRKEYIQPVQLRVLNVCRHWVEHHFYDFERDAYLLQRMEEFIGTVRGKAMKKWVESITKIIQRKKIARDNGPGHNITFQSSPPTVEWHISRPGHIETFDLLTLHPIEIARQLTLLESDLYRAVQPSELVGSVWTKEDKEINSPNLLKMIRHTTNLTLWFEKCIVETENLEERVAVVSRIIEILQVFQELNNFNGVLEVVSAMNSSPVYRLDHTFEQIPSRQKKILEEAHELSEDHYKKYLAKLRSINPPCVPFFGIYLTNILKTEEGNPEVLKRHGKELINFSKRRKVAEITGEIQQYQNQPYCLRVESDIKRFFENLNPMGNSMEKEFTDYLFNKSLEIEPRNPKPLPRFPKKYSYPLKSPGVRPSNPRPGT

SMILES	IC50 [1]	IC50 [2]	GI50 [3]
Cc1cc(N[C@H](C)c2cccc(C(F)(F)F)c2C)c2cc(N3CCNCC3)ccc2n1 [Compound 1, (R)-2-methyl-N-(1-(2-methyl-3-(trifluoromethyl)phenyl)ethyl)-6-(piperazin-1-yl)quinolin-4-amine]	10 to 100 nM	> 500 nM	> 500 nM
Cc1c([C@@H](C)Nc2c(C#N)cnc3ccc(N4CCNCC4)cc23)cccc1C(F)(F)F [Compound 2, (R)-4-((1-(2-methyl-3-(trifluoromethyl)phenyl)ethyl)amino)-6-(piperazin-1-yl)quinoline-3-carbonitrile]	> 100 nM	–	> 500 nM
Cc1c([C@@H](C)Nc2c(C#N)cnc3ccc(N4CCN(C(=O)C5CCOC5)CC4)cc23)cccc1C(F)(F)F (stereo partly drawn) [Compound 3, 4-(((R)-1-(2-methyl-3-(trifluoromethyl)phenyl)ethyl)amino)-6-(4-(tetrahydrofuran-3-carbonyl)piperazin-1-yl)quinoline-3-carbonitrile]	> 100 nM	> 500 nM	> 500 nM
Cc1cc(N[C@H](C)c2cccc(C(F)(F)F)c2C)c2cc(N3CCN(C(=O)C4CCOC4)CC3)ccc2n1 (stereo partly drawn) [Compound 4, (4-(2-methyl-4-(((R)-1-(2-methyl-3-(trifluoromethyl)phenyl)ethyl)amino)quinolin-6-yl)piperazin-1-yl)(tetrahydrofuran-3-yl)methanone]	10 to 100 nM	> 500 nM	100 to 500 nM
Cc1c([C@@H](C)Nc2ccnc3ccc(N4CCNCC4)cc23)cccc1C(F)(F)F [Compound 5, (R)-N-(1-(2-methyl-3-(trifluoromethyl)phenyl)ethyl)-6-(piperazin-1-yl)quinolin-4-amine]	10 to 100 nM	–	> 500 nM
Cc1c([C@@H](C)Nc2ccnc3ccc(N4CCN(C(=O)C5CCOC5)CC4)cc23)cccc1C(F)(F)F (stereo partly drawn) [Compound 6, (4-(4-(((R)-1-(2-methyl-3-(trifluoromethyl)phenyl)ethyl)amino)quinolin-6-yl)piperazin-1-yl)(tetrahydrofuran-3-yl)methanone]	10 to 100 nM	150 to 500 nM	100 to 500 nM
CC(=O)N[C@@H]1CCN(c2ccc3ncc(C#N)c(N[C@H](C)c4cccc(C(F)F)c4F)c3c2)C1 [Compound 7, N-((R)-1-(3-cyano-4-(((R)-1-(3-(difluoromethyl)-2-fluorophenyl)ethyl)amino)quinolin-6-yl)pyrrolidin-3-yl)acetamide]	> 100 nM	–	> 500 nM
C[C@@H](Nc1ccnc2ccc(N3CC[C@@H](NC(=O)OC(C)(C)C)C3)cc12)c1cccc(C(F)F)c1F [Compound 8, tert-butyl ((R)-1-(4-(((R)-1-(3-(difluoromethyl)-2-fluorophenyl)ethyl)amino)quinolin-6-yl)pyrrolidin-3-yl)carbamate]	10 to 100 nM	150 to 500 nM	> 500 nM
C[C@@H](Nc1ccnc2ccc(N3CC[C@@H](N)C3)cc12)c1cccc(C(F)F)c1F [Compound 9, 6-((R)-3-aminopyrrolidin-1-yl)-N-((R)-1-(3-(difluoromethyl)-2-fluorophenyl)ethyl)quinolin-4-amine]	≤ 10 nM	150 to 500 nM	100 to 500 nM
C[C@@H](Nc1ccnc2ccc(C3CCNCC3)cc12)c1cccc(C(F)F)c1F [Compound 10, (R)-N-(1-(3-(difluoromethyl)-2-fluorophenyl)ethyl)-6-(piperidin-4-yl)quinolin-4-amine]	10 to 100 nM	> 500 nM	100 to 500 nM
CC(=O)N[C@@H]1CCN(c2ccc3nccc(N[C@H](C)c4cccc(C(F)F)c4F)c3c2)C1 [Compound 11, N-((R)-1-(4-(((R)-1-(3-(difluoromethyl)-2-fluorophenyl)ethyl)amino)quinolin-6-yl)pyrrolidin-3-yl)acetamide]	10 to 100 nM	150 to 500 nM	≤ 100 nM
CC(=O)N1CCN(c2ccc3nccc(N[C@H](C)c4cccc(C(F)F)c4F)c3c2)CC1 [Compound 12, (R)-1-(4-(4-((1-(3-(difluoromethyl)-2-fluorophenyl)ethyl)amino)quinolin-6-yl)piperazin-1-yl)ethan-1-one]	≤ 10 nM	≤ 150 nM	≤ 100 nM
CC(=O)N1CCC(c2ccc3nccc(N[C@H](C)c4cccc(C(F)F)c4F)c3c2)CC1 [Compound 13, (R)-1-(4-(4-((1-(3-(difluoromethyl)-2-fluorophenyl)ethyl)amino)quinolin-6-yl)piperidin-1-yl)ethan-1-one]	≤ 10 nM	150 to 500 nM	≤ 100 nM
Cc1c([C@@H](C)Nc2ccnc3ccc(N4CCOCC4)cc23)cccc1C(F)(F)F [Compound 37, (R)-N-(1-(2-methyl-3-(trifluoromethyl)phenyl)ethyl)-6-morpholinoquinolin-4-amine]	–	150 to 500 nM	100 to 500 nM
CC(=O)N1CCN(c2ccc3nccc(N[C@H](C)c4cccc(C(F)(F)F)c4C)c3c2)[C@H](C)C1 [Compound 67, 1-((R)-3-methyl-4-(4-(((R)-1-(2-methyl-3-(trifluoromethyl)phenyl)ethyl)amino)quinolin-6-yl)piperazin-1-yl)ethan-1-one]	–	> 500 nM	> 500 nM
Cc1c([C@@H](C)Nc2ccnc3ccc(N4CCNC[C@H]4C)cc23)cccc1C(F)(F)F [Compound 68, N-((R)-1-(2-methyl-3-(trifluoromethyl)phenyl)ethyl)-6-((R)-2-methylpiperazin-1-yl)quinolin-4-amine]	–	> 500 nM	> 500 nM
CC(=O)N1CC[C@@](F)(c2ccc3nccc(N[C@H](C)c4cccc(C(F)F)c4F)c3c2)C1 [Compound 86, 1-((R)-3-(4-(((R)-1-(3-(difluoromethyl)-2-fluorophenyl)ethyl)amino)quinolin-6-yl)-3-fluoropyrrolidin-1-yl)ethan-1-one]	> 100 nM	–	> 500 nM
[2H]C([2H])([2H])O[C@]1(c2ccc3nccc(N[C@H](C)c4cccc(C(F)F)c4F)c3c2)CCN(C(C)=O)C1 [Compound 93, 1-((S)-3-(4-(((R)-1-(3-(difluoromethyl)-2-fluorophenyl)ethyl)amino)quinolin-6-yl)-3-(methoxy-d3)pyrrolidin-1-yl)ethan-1-one]	–	≤ 150 nM	≤ 100 nM
[2H]C([2H])([2H])O[C@@]1(c2ccc3nccc(N[C@H](C)c4cccc(C(F)F)c4F)c3c2)CCN(C(C)=O)C1 [Compound 94, 1-((R)-3-(4-(((R)-1-(3-(difluoromethyl)-2-fluorophenyl)ethyl)amino)quinolin-6-yl)-3-(methoxy-d3)pyrrolidin-1-yl)ethan-1-one]	–	≤ 150 nM	≤ 100 nM

From patent US20240208909A1, “SUBSTITUTED QUINOLINE DERIVATIVES HAVING SOS1 INHIBITION ACTIVITIES AND USES THEREOF” (Accutar Biotechnology Inc., priority 2022, published 2024)
